Data on 20 compounds can be found in patent US20230086702A1, “SUBSTITUTED 2-AMINO-PYRAZOLYL-[1,2,4]TRIAZOLO[1,5A]PYRIDINE DERIVATIVES AND USE THEREOF” (The Johns Hopkins University, priority 2019, published 2023).

Assay [1] has as its target T1, DLK (Homo sapiens, UniProt Q12852).
T1 construct: 10 nM DLK, catalytic domain, Carna Biosiences; purchased Carna Biosciences ('Carna Biosiences' [sic])
T1 sequence (Q12852 125-366 limits assumed): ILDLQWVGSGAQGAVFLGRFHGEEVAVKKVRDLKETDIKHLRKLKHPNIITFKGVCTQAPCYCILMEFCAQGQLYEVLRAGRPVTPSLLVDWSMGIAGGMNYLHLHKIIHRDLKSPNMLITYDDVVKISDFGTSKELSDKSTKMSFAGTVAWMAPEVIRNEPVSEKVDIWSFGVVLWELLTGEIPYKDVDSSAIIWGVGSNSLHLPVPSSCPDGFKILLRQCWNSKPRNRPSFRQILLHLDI
The assay can be described thus: DLK biochemical assay (TR-FRET, MKK7 phosphorylation). The procedure, abridged: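 TR-FRET read-out (665/Eu ratio) of MKK7 T275/S277 phosphorylation, with inhibition lowering the signal. Final conditions: 10 nM DLK catalytic domain, 15 nM MKK7, 60 μM ATP, 90 min at RT. Detection incubation 16 h at 37° C in 1536-well or 4° C in 384-well format.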

For assay [2], the target named is T2, LZK (Homo sapiens, UniProt O43283).
T2 construct: 10 nM LZK, catalytic domain, Carna Biosiences in assay buffer; purchased Carna Biosciences ('Carna Biosiences' [sic])
T2 sequence (O43283 168-409 limits assumed): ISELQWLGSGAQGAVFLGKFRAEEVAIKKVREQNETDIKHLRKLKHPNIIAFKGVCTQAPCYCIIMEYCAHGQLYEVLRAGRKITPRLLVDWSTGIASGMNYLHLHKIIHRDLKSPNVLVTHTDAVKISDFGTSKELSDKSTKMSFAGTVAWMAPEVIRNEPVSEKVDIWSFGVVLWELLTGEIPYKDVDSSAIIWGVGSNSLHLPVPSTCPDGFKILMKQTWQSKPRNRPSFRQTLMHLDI
The experiment in a line: LZK biochemical assay (TR-FRET, MKK7 phosphorylation). The procedure, abridged:
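Read-out is HTRF: Eu-labelled anti-phospho-MKK7 (T275/S277) and XL665 anti-His, incubated 16 h at 32 °C, with a drop in signal marking inhibition. Reaction beforehand: 10 nM LZK kinase domain, 15 nM His-MKK7, 15 µM ATP (final) for 90 min at room temperature, pH 7.5.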

For `Nc1nc2cc(-c3cnn(C(c4ccc(C(F)(F)F)nc4)C4CCOCC4)c3)cc(-c3cnn(CC(F)(F)F)c3)n2n1` (stereo not shown) [II-149], the IC50 in assay [1] was found to be 2.9 nM; in assay [2], 4.7 nM.
As for `CCC(c1ccc(C(F)(F)F)nc1)n1cc(-c2cc(-c3ccnc(OC(F)F)c3)c3nc(N)nn3c2)cn1` (racemic) [II-25, 8-[2-(Difluoromethoxy)pyridin-4-yl]-6-(1-{1-[6-(trifluoromethyl)pyridin-3-yl]propyl}-1H-pyrazol-4-yl)[1,2,4]triazolo[1,5-a]pyridin-2-amine], the half-inhibitory concentration (IC50) in assay [1] is 130 nM; in assay [2], 82 nM.
Regarding `Nc1nc2cc(-c3cnn(Cc4ccnc(OC(F)(F)F)c4)c3)cc(-c3cnn(CC(F)(F)F)c3)n2n1` [II-135, 5-[1-(2,2,2-Trifluoroethyl)-1H-pyrazol-4-yl]-7-(1-{[2-(trifluoromethoxy)pyridin-4-yl]methyl}-1H-pyrazol-4-yl)[1,2,4]triazolo[1,5-a]pyridin-2-amine], the half-maximal inhibitory concentration (IC50) in assay [1] was determined as 19 nM; in assay [2], 70 nM.
As to `Nc1nc2cc(-c3cnn(C(c4ccc(C(F)(F)F)nc4)C4CCOCC4)c3)cc(-c3ccc(=O)n(CC(F)F)c3)n2n1` (stereo not shown) [II-185], the concentration for half-maximal inhibition (IC50) amounted to 1.3 nM in assay [1] and 2 nM in assay [2].
As to `CCC(c1ccc(C(F)(F)F)nc1)n1cc(-c2cc(-c3ccc(=O)n(C(F)F)c3)n3nc(N)nc3c2)cn1` (single isomer, unassigned) [II-180, 5-[2-Amino-7-(1-{1-[6-(trifluoromethyl)pyridin-3-yl]propyl}-1H-pyrazol-4-yl)[1,2,4]triazolo[1,5-a]pyridin-5-yl]-1-(difluoromethyl)pyridin-2(1H)-one], the IC50 was found to be 34 nM in assay [1] and 79 nM in assay [2].
As for `Nc1nc2cc(-c3cnn(Cc4ccccc4)c3)cc(-c3ccc(C4CC4)nc3)n2n1` [II-47, 7-(1-Benzyl-1H-pyrazol-4-yl)-5-(6-cyclopropylpyridin-3-yl)[1,2,4]triazolo[1,5-a]pyridin-2-amine], the figures for the IC50 in assay [1] and in assay [2] were 33 nM and 120 nM, respectively.
For `CCC(c1ccc(N2CCOCC2)cc1)n1cc(-c2cc(-c3cnn(CC(F)(F)F)c3)c3nc(N)nn3c2)cn1` (single isomer, unassigned) [II-104, 6-(1-{1-[4-(Morpholin-4-yl)phenyl]propyl}-1H-pyrazol-4-yl)-8-[1-(2,2,2-trifluoroethyl)-1H-pyrazol-4-yl][1,2,4]triazolo[1,5-a]pyridin-2-amine], the results for the IC50 in assay [1] and in assay [2] were 6 nM and 51 nM, respectively.
As for `CC(C)C(c1ccc(C(F)(F)F)nc1)n1cc(-c2cc(-c3cnn(C4CCCC4)c3)n3nc(N)nc3c2)cn1` (stereo not shown) [II-143], the 50% inhibitory concentration (IC50) in assay [1] stood at 2.5 nM; in assay [2] it was 15 nM.
Turning to `CCC(c1ccc(C(F)(F)F)nc1)n1cc(-c2cc(-c3ccnc(OC(F)F)c3)c3nc(N)nn3c2)cn1` (single isomer, unassigned) [II-27, 8-[2-(Difluoromethoxy)pyridin-4-yl]-6-(1-{1-[6-(trifluoromethyl)pyridin-3-yl]propyl}-1H-pyrazol-4-yl)[1,2,4]triazolo[1,5-a]pyridin-2-amine], the 50% inhibitory concentration (IC50) in assay [1] stood at 30 nM; in assay [2], 55 nM.
Turning to `Nc1nc2cc(-c3cnn(C(c4ccccc4)C4CCNCC4)c3)cc(-c3cnn(CC(F)(F)F)c3)n2n1` (stereo not shown) [II-152], the values for the IC50 in assay [1] and in assay [2] were 1.4 nM and 16 nM, respectively.
Take `CCC(c1ccc(C(F)(F)F)cc1)n1cc(-c2cc(-c3cnn(CC(F)(F)F)c3)n3nc(N)nc3c2)cn1` (single isomer, unassigned) [II-130, 5-[1-(2,2,2-Trifluoroethyl)-1H-pyrazol-4-yl]-7-(1-{1-[4-(trifluoromethyl)phenyl]propyl}-1H-pyrazol-4-yl)[1,2,4]triazolo[1,5-a]pyridin-2-amine]: the IC50 in assay [1] worked out at 120 nM; in assay [2], 670 nM.
Taken in the same sequence, the figures for `Nc1nc2c(-c3ccc(=O)n(CC(F)F)c3)cc(-c3cnn(C(c4ccc(C(F)(F)F)nc4)C4CCOCC4)c3)cn2n1` (stereo not shown) [II-156] were 1.1 nM and 3.3 nM.
`CC(C)C(c1ccc(C(F)(F)F)nc1)n1cc(-c2cc(-c3ccc(C4CC4)nc3)c3nc(N)nn3c2)cn1` (single isomer, unassigned) [II-44]: the IC50 came out at 60 nM in assay [1] and 100 nM in assay [2].
For the compound `CCC(c1ccc(OC(F)(F)F)nc1)n1cc(-c2cc(-c3ccc(=O)n(CC(F)(F)F)c3)c3nc(N)nn3c2)cn1` (single isomer, unassigned) [II-164, 5-[2-Amino-6-(1-{1-[6-(trifluoromethoxy)pyridin-3-yl]propyl}-1H-pyrazol-4-yl)[1,2,4]triazolo[1,5-a]pyridin-8-yl]-1-(2,2,2-trifluoroethyl)pyridin-2(1H)-one], the IC50 in assay [1] came to 3.5 nM; in assay [2] it was 17 nM.
For `CC[C@@H](c1ccc(C(F)(F)F)nc1)n1cc(-c2cc(-c3ccc(=O)n(CC(F)(F)F)c3)c3nc(N)nn3c2)cn1` [II-159, 5-[2-Amino-6-(1-{(1S)-1-[6-(trifluoromethyl)pyridin-3-yl]propyl}-1H-pyrazol-4-yl)[1,2,4]triazolo[1,5-a]pyridin-8-yl]-1-(2,2,2-trifluoroethyl)pyridin-2(1H)-one], the 50% inhibitory concentration (IC50) stood at 2.4 nM in assay [1] and 6.2 nM in assay [2].
Regarding `CC(C)C(c1ccc(C(F)(F)F)nc1)n1cc(-c2cc(-c3ccc(C(F)(F)F)nc3)c3nc(N)nn3c2)cn1` (racemic) [II-40, 6-(1-{2-Methyl-1-[6-(trifluoromethyl)pyridin-3-yl]propyl}-1H-pyrazol-4-yl)-8-[6-(trifluoromethyl)pyridin-3-yl][1,2,4]triazolo[1,5-a]pyridin-2-amine], the values for the IC50 in assay [1] and in assay [2] were 44 nM and 120 nM, respectively.
Taken in the same sequence, the figures for `CCC(c1ccc(OC(F)(F)F)nc1)n1cc(-c2cc(-c3cnn(CC(F)(F)F)c3)n3nc(N)nc3c2)cn1` (single isomer, unassigned) [II-115, 5-[1-(2,2,2-Trifluoroethyl)-1H-pyrazol-4-yl]-7-(1-{1-[6-(trifluoromethoxy)pyridin-3-yl]propyl}-1H-pyrazol-4-yl)[1,2,4]triazolo[1,5-a]pyridin-2-amine] were 67 nM and 138 nM.
With `CCC(c1ccc(C(F)(F)F)nc1)n1cc(-c2cc(-c3cc(CO)ccc3Cl)c3nc(N)nn3c2)cn1` (single isomer, unassigned) [II-3, {3-[2-Amino-6-(1-{1-[6-(trifluoromethyl)pyridin-3-yl]propyl}-1H-pyrazol-4-yl)[1,2,4]triazolo[1,5-a]pyridin-8-yl]-4-chlorophenyl}methanol], the half-maximal inhibitory concentration (IC50) in assay [1] worked out at 12 nM; in assay [2] it was 6.4 nM.
Taken in the same sequence, the figures for `CCC(c1ccc(C(F)(F)F)cc1)n1cc(-c2cc(-c3cnn(CC(F)(F)F)c3)n3nc(N)nc3c2)cn1` (single isomer, unassigned) [II-131, 5-[1-(2,2,2-Trifluoroethyl)-1H-pyrazol-4-yl]-7-(1-{1-[4-(trifluoromethyl)phenyl]propyl}-1H-pyrazol-4-yl)[1,2,4]triazolo[1,5-a]pyridin-2-amine] were 25 nM and 165 nM.
On to `CCS(=O)(=O)c1cccc(-c2cc(-c3cnn(C(c4ccc(C(F)(F)F)nc4)C4CCOCC4)c3)cn3nc(N)nc23)c1` (single isomer, unassigned) [II-18, 8-[3-(Ethylsulfonyl)phenyl]-6-(1-{tetrahydro-2H-pyran-4-yl[6-(trifluoromethyl)pyridin-3-yl]methyl}-1H-pyrazol-4-yl)[1,2,4]triazolo[1,5-a]pyridin-2-amine], for which the figures for the half-maximal inhibitory concentration (IC50) in assay [1] and in assay [2] were 0.3 nM and 1.5 nM, respectively.
